# Measurements: article PMC8501799, “Constitutive signal bias mediated by the human GHRHR splice variant 1” (Proceedings of the National Academy of Sciences of the …, 2021)
# Assays:
# [1] = target: T1, GHRHR Δ102 (Homo sapiens, UniProt Q02643); assay: cAMP accumulation; format: cell-based; conditions: Table S2, mean ± SEM
# T1 construct: expressed in transfected cells; host or cells: HEK293T
# Method: (§1) GHRH-stimulated cAMP accumulation was measured by a LANCE Ultra cAMP kit (PerkinElmer). Briefly, HEK293T cells (24 h after transfection with SV1 or GHRHR) or prostate cancer cells were digested by 0.2% (wt/vol) EDTA and washed once with Dulbecco’s phosphate-buffered saline (PBS). Cells were then resuspended with stimulation buffer (Hanks’ balanced salt solution [HBSS] supplemented with 5 mM HEPES, 0.5 mM IBMX, and 0.1% [wt/vol] bovine serum albumin [BSA], pH 7.4) to a density of 0.6 million cells per milliliter and added to 384-well white plates (3,000 cells per well). […] The reaction was stopped by adding 5 μL Eu-cAMP tracer and 5 μL ULight-anti-cAMP. After 1 h RT incubation, TR-FRET signals (excitation: 320 nm, emission: 615 and 665 nm) were measured by an Envision plate reader (PerkinElmer). cAMP concentrations were interpolated by a standard curve.
# (§2) All functional study data were analyzed using Prism 7 (GraphPad) and presented as means ± SEM from at least three independent experiments. Concentration-response curves were evaluated with a three-parameter logistic equation. The significance was determined with either two-tailed Student’s t test or one-way ANOVA, and P < 0.05 is considered statistically significant.
# (§3) Table S2. Effects of residue mutation or truncation in the ECD of GHRHR on GHRH-induced cAMP […]
# (§4) Mutant pEC50 Emax (% WT GHRHR) expression ΔLog (τ/KA) […]
# (§5) cAMP accumulation data were analyzed using a three-parameter logistic equation to determine pEC50 and Emax values. pEC50 is the negative logarithm of the molar concentration of agonist that induced half the maximal response. Emax for mutants is expressed as a percentage of the WT GHRHR. Data were analyzed by nonlinear regression using the operational model equation to determine t he logR values (logτ/KA, i.e., logarithm of the transduction ratio). τ is the effi cacy value of the agonist and was corrected by cell surface expression of the receptor. KA is dissociation constant. Changes in transduction ratio (ΔlogR) were calculated to determine the relative effectiveness of the mutants. All values are means ± S.E.M. of at le ast three ind ep en dent experiments (n = 3-5) conducted in quadruplicate. Statistical analysis was carried out by comparing the control responses in the WT GHRHR. **, P < 0.01 and ***, P < 0.001, determined by one-way
# [2] = target: T2, GHRHR Δ89 (Homo sapiens, UniProt Q02643); assay: cAMP accumulation; format: cell-based
# T2 construct: expressed in transfected cells; host or cells: HEK293T
# T2 sequence (Q02643 90-423): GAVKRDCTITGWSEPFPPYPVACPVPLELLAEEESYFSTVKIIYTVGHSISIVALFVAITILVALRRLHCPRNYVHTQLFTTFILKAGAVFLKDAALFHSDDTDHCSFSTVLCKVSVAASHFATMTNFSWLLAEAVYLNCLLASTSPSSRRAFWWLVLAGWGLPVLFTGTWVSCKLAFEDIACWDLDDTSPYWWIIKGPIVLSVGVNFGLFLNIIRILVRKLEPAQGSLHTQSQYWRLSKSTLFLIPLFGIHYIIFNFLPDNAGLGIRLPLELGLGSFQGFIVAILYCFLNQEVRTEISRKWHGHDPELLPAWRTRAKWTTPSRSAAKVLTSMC
# Method: as §1, §2, §3, §4, §5
# [3] = target: T3, GHRHR Δ72 (Homo sapiens, UniProt Q02643); assay: cAMP accumulation; format: cell-based; conditions: Table S2, mean ± SEM
# T3 construct: expressed in transfected cells; host or cells: HEK293T
# T3 sequence (Q02643 73-423 limits assumed, stated change not applied): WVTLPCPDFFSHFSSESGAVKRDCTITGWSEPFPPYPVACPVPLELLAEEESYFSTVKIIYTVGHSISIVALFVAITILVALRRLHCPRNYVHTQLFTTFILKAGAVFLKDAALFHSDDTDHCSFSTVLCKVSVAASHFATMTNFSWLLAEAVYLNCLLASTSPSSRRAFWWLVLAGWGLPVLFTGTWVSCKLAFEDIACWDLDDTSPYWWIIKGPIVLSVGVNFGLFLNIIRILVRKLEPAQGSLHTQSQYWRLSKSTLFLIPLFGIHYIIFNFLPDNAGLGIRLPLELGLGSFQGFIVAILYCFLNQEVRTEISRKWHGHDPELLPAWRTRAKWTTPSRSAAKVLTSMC
# Method: as §1, §2, §3, §4, §5
# [4] = target: T4, GHRHR L34A-L62A-F82A-F85A (Homo sapiens, UniProt Q02643, F82A/F85A/L34A/L62A); assay: cAMP accumulation; format: cell-based; conditions: Table S2, mean ± SEM
# T4 construct: expressed in transfected cells; host or cells: HEK293T
# T4 sequence (Q02643 23-423 L34A/L62A/F82A/F85A): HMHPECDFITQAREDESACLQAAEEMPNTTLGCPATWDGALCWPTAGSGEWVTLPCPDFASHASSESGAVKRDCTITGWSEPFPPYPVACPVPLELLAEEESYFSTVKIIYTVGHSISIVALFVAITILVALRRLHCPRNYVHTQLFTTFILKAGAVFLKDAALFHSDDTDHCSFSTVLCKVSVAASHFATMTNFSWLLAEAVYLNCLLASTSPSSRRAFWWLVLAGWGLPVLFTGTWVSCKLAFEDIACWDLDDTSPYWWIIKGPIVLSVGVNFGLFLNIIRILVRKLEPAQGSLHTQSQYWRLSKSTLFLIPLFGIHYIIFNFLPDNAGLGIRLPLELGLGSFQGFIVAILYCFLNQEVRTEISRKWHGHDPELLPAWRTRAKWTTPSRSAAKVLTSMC
# Method: as §1, §2, §3, §4, §5
# [5] = target: T5, GHRHR Δ62 (Homo sapiens, UniProt Q02643); assay: cAMP accumulation; format: cell-based; conditions: Table S2, mean ± SEM
# T5 construct: expressed in transfected cells; host or cells: HEK293T
# T5 sequence (Q02643 63-423 limits assumed, stated change not applied): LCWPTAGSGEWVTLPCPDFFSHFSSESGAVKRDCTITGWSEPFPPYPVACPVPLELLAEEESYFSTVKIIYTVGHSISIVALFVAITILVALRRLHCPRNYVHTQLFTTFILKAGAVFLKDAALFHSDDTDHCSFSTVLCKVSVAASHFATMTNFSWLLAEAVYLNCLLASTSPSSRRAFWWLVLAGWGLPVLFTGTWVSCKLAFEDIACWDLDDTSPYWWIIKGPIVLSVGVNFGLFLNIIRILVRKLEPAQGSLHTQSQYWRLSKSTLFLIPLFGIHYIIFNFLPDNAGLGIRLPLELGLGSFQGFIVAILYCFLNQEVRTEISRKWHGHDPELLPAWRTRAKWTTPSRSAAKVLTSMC
# Method: as §1, §2, §3, §4, §5
# [6] = target: T6, GHRHR L62A (Homo sapiens, UniProt Q02643, L62A); assay: cAMP accumulation; format: cell-based; conditions: Table S2, mean ± SEM
# T6 construct: expressed in transfected cells; host or cells: HEK293T
# T6 sequence (Q02643 23-423 L62A): as the sequence (Q02643 23-423 L34A/L62A/F82A/F85A) above, with A12L, A60F, A63F counted along it
# Method: as §1, §2, §3, §4, §5
# [7] = target: T7, GHRHR Δ52 (Homo sapiens, UniProt Q02643); assay: cAMP accumulation; format: cell-based; conditions: Table S2, mean ± SEM
# T7 construct: expressed in transfected cells; host or cells: HEK293T
# T7 sequence (Q02643 53-423 limits assumed, stated change not applied): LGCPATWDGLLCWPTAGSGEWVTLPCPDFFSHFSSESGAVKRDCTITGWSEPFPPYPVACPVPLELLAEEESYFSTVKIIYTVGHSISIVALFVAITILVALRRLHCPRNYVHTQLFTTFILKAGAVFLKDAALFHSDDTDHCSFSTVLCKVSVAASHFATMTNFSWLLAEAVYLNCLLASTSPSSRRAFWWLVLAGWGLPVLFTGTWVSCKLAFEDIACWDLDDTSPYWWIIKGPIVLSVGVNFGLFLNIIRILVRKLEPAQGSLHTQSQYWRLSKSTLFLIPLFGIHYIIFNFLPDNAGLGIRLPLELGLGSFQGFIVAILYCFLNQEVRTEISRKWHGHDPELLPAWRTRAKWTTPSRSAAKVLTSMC
# Method: as §1, §2, §3, §4, §5
# [8] = target: T8, GHRHR F82A (Homo sapiens, UniProt Q02643, F82A); assay: cAMP accumulation; format: cell-based; conditions: Table S2, mean ± SEM
# T8 construct: expressed in transfected cells; host or cells: HEK293T
# T8 sequence (Q02643 23-423 F82A): as the sequence (Q02643 23-423 L34A/L62A/F82A/F85A) above, with A12L, A40L, A63F counted along it
# Method: as §1, §2, §3, §4, §5
# [9] = target: T9, GHRHR Δ112 (Homo sapiens, UniProt Q02643); assay: cAMP accumulation; format: cell-based; conditions: Table S2, mean ± SEM
# T9 construct: expressed in transfected cells; host or cells: HEK293T
# Method: as §1, §2, §3, §4, §5
# [10] = target: T10, GHRHR Δ42 (Homo sapiens, UniProt Q02643); assay: cAMP accumulation; format: cell-based; conditions: Table S2, mean ± SEM
# T10 construct: expressed in transfected cells; host or cells: HEK293T
# T10 sequence (Q02643 43-423 limits assumed, stated change not applied): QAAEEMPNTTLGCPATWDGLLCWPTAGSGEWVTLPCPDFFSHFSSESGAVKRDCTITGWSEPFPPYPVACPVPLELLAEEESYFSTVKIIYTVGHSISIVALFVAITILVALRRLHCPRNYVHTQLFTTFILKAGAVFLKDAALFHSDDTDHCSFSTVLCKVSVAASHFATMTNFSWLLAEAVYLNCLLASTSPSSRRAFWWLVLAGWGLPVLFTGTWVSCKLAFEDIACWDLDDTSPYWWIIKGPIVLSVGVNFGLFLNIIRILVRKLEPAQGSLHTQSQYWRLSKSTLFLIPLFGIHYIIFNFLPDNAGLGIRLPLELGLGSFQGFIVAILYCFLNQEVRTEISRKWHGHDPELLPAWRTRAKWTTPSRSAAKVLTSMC
# Method: as §1, §2, §3, §4, §5
# [11] = target: T11, GHRHR L34A (Homo sapiens, UniProt Q02643, L34A); assay: cAMP accumulation; format: cell-based; conditions: Table S2, mean ± SEM
# T11 construct: expressed in transfected cells; host or cells: HEK293T
# T11 sequence (Q02643 23-423 L34A): as the sequence (Q02643 23-423 L34A/L62A/F82A/F85A) above, with A40L, A60F, A63F counted along it
# Method: as §1, §2, §3, §4, §5
# [12] = tested on: GHRHR ECD mutants (L34, L62, F82, F85 to alanine); assay: cAMP accumulation, ECD alanine mutants of GHRHR; format: cell-based, human; conditions: any or all of four ECD residues (L34, L62, F82, F85) to alanine; HEK293T
# Method: as §1
# [13] = tested on: GHRHR mutants (F82, F85, D274, E223, N296, L337, F338 to alanine); assay: β-arrestin 1 recruitment (BRET), GHRHR single-point alanine mutants; format: cell-based, human; conditions: single residue to alanine; 250 μM GHRH; HEK293T; Fig. 5G
# Method: HEK293T cells were seeded at a density of 30,000 cells per well into 96-well culture plates pretreated with poly-D-lysine hydrobromide. After incubation for 24 h to reach 70% to 80% confluence, the cells were transiently transfected with HA-Flag-GHRHR-Rluc8 or HA-Flag-SV1-Rluc8 and β-arrestin 1/2-Venus at a 1:9 mass ratio using lipofectamine 3000 reagent (Invitrogen) and cultured for another 24 h. Thereafter, cells were washed once and incubated for 30 min at 37 °C with HBSS buffer (pH 7.4) supplemented with 0.1% BSA and 10 mM HEPES. Five micromolars of coelenterazine h (YEASEN Biotechnology) was then added and incubated for 5 min in the dark. The bioluminescence resonance energy transfer (BRET) signals were detected with an Envision plate reader by calculating the ratio of emission at 535 nm over emission at 470 nm.
# [14] = HEK-293T, HEK293T, n = 3-5 in quadruplicate
# [15] = operational model, τ corrected by cell surface expression, relative to WT GHRHR
smiles,measurement,setting,value
"CC[C@H](C)[C@H](NC(=O)[C@H](C)NC(=O)[C@H](CC(=O)O)NC(=O)[C@H](C)NC(=O)[C@@H](N)Cc1ccc(O)cc1)C(=O)N[C@@H](Cc1ccccc1)C(=O)N[C@H](C(=O)N[C@@H](CC(N)=O)C(=O)N[C@@H](CO)C(=O)N[C@@H](Cc1ccc(O)cc1)C(=O)N[C@@H](CCCNC(=N)N)C(=O)N[C@@H](CCCCN)C(=O)N[C@H](C(=O)N[C@@H](CC(C)C)C(=O)NCC(=O)N[C@@H](CCC(N)=O)C(=O)N[C@@H](CC(C)C)C(=O)N[C@@H](CO)C(=O)N[C@@H](C)C(=O)N[C@@H](CCCNC(=N)N)C(=O)N[C@@H](CCCCN)C(=O)N[C@@H](CC(C)C)C(=O)N[C@@H](CC(C)C)C(=O)N[C@@H](CCC(N)=O)C(=O)N[C@@H](CC(=O)O)C(=O)N[C@H](C(=O)N[C@@H](CCSC)C(=O)N[C@@H](CO)C(=O)N[C@@H](CCCNC(=N)N)C(=O)N[C@@H](CCC(N)=O)C(=O)N[C@@H](CCC(N)=O)C(=O)NCC(=O)N[C@@H](CCC(=O)O)C(=O)N[C@@H](CO)C(=O)N[C@@H](CC(N)=O)C(=O)N[C@@H](CCC(N)=O)C(=O)N[C@@H](CCC(=O)O)C(=O)N[C@@H](CCCNC(=N)N)C(=O)NCC(=O)N[C@@H](C)C(=O)N[C@@H](CCCNC(=N)N)C(=O)N[C@@H](C)C(=O)N[C@@H](CCCNC(=N)N)C(=O)N[C@@H](CC(C)C)C(N)=O)[C@@H](C)CC)C(C)C)[C@@H](C)O [GHRH, growth hormone–releasing hormone]",Emax,[1]; [14],107 ± 2.15%
same,ΔLog (τ/KA),[1]; [15],-3.55 ± 0.02
same,cAMP responses after removal of the N-terminal 89 residues,"[2]; HEK293T, Fig. 1B",diminished cAMP responses
same,Emax,"[2]; HEK-293T, Table S2, HEK293T, mean ± SEM, n = 3-5 in quadruplicate",106 ± 2.48%
same,ΔLog (τ/KA),"[2]; Table S2, operational model, τ corrected by cell surface expression, relative to WT GHRHR, mean ± SEM",-3.28 ± 0.03
same,Emax,[3]; [14],104 ± 2.57%
same,ΔLog (τ/KA),[3]; [15],-2.98 ± 0.04
same,Emax,[4]; [14],105 ± 5.52%
same,ΔLog (τ/KA),[4]; [15],-4.07 ± 0.04
same,Emax,[5]; [14],104 ± 2.19%
same,ΔLog (τ/KA),[5]; [15],-3.05 ± 0.03
same,Emax,[6]; [14],98 ± 2%
same,ΔLog (τ/KA),[6]; [15],-1.03 ± 0.04
same,Emax,[7]; [14],106 ± 1.62%
same,ΔLog (τ/KA),[7]; [15],-2.83 ± 0.03
same,Emax,[8]; [14],99.8 ± 1.36%
same,ΔLog (τ/KA),[8]; [15],-0.53 ± 0.05
same,Emax,[9]; [14],106 ± 2.34%
same,ΔLog (τ/KA),[9]; [15],-3.65 ± 0.02
same,Emax,[10]; [14],104 ± 1.53%
same,ΔLog (τ/KA),[10]; [15],-2.86 ± 0.02
same,Emax,[11]; [14],101 ± 2.23%
same,ΔLog (τ/KA),[11]; [15],-0.78 ± 0.06
same,GHRHR-elicited cAMP responses,[12],reduced GHRHR-elicited cAMP responses
same,β-arrestin 1 recruitment,[13],significantly increased the capability of GHRHR to recruit β-arrestin 1
